Residual activity data for 39 molecules are collected here from ChEMBL document CHEMBL3039007, “Structure-based identification of OATP1B1/3 inhibitors” (Mol Pharmacol, 2013).

The target of data set [1] is T1, Solute carrier organic anion transporter family member 1B1 (Homo sapiens, UniProt Q9Y6L6).
T1 sequence (Q9Y6L6 whole entry): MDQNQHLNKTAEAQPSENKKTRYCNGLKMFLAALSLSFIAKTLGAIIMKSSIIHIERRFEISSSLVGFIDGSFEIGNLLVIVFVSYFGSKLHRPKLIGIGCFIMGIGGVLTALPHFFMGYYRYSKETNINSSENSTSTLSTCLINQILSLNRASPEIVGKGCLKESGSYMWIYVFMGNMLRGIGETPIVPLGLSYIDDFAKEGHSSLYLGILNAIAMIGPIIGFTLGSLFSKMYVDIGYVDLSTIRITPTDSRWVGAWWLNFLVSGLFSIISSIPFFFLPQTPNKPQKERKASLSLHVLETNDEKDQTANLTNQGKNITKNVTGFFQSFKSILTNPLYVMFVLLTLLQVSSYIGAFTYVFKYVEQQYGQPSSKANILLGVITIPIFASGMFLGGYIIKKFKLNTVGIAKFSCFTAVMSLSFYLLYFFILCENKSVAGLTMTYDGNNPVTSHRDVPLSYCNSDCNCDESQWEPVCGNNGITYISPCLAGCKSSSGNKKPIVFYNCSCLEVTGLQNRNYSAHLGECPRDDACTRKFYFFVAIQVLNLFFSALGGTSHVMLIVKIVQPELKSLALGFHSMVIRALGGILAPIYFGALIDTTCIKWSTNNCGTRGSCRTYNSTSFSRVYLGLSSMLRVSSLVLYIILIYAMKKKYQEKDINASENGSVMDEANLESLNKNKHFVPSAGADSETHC
Conditions: chinese hamster, cho, 10 µM.

In data set [2] the target is T2, Solute carrier organic anion transporter family member 1B3 (Homo sapiens, UniProt Q9NPD5).
T2 sequence (Q9NPD5 whole entry): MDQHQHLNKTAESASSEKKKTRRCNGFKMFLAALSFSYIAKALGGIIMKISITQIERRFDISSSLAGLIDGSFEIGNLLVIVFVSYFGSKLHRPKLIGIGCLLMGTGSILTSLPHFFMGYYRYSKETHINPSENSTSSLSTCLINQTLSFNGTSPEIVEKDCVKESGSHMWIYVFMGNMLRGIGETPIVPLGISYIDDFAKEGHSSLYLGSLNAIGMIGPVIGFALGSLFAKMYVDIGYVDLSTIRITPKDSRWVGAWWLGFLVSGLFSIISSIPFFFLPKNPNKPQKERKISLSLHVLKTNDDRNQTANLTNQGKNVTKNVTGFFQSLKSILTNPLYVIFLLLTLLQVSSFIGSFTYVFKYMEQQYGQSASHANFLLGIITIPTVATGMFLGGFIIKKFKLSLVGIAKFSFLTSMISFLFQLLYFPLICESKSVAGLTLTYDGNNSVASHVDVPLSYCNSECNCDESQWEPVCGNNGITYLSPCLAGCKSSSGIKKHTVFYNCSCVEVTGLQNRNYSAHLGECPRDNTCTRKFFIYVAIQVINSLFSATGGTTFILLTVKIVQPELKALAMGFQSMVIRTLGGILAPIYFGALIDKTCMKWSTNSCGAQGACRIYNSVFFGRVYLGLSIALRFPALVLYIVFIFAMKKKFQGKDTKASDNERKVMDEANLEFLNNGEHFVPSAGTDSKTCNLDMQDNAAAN
The note with it: chinese hamster, cho, 10 µM.

Take `CC(COc1ccccc1)N(CCCl)Cc1ccccc1.Cl` (stereo not drawn) [PHENOXYBENZAMINE HYDROCHLORIDE]: the results for the residual activity in data set [1] and in data set [2] were 101.5% and 88.73%, respectively.

For `Cc1cc(=O)c2c(O)c3c(cc2o1)OCC(C)CC3` (stereo not drawn) [DIHYDROPTAEROXYLIN], the residual activity (usually the signal under treatment as a percentage of the control signal) in data set [1] is 94.2%; in data set [2] it was 85.01%.

Regarding `CC1Cc2ccccc2N1NC(=O)c1ccc(Cl)c(S(N)(=O)=O)c1` (stereo not drawn) [INDAPAMIDE], the results for the residual activity in data set [1] and in data set [2] were 80.06% and 97.5%, respectively.

`Cc1ccc2cc3c(ccc4ccccc43)c3c2c1CC3` [3-METHYLCHOLANTHRENE]: the residual activity is reported as 86.73% in data set [1] and 78.58% in data set [2].

As for `CC(C)=CCC[C@](C)(O)[C@@H]1CC=C(C)CC1` [LEVOMENOL], the residual activity in data set [1] was 83.39%; in data set [2], 97.78%.

On to `CN(C)c1ccc(O)c2c1C[C@H]1C[C@H]3[C@H](N(C)C)C(O)=C(C(N)=O)C(=O)[C@@]3(O)C(O)=C1C2=O.Cl` [MINOCYCLINE HYDROCHLORIDE], for which the residual activity in data set [1] was 100.7%; in data set [2], 96.34%.

As to `O=C(O)CCC(=O)c1ccc(-c2ccccc2)cc1` [FENBUFEN], the residual activity in data set [1] was 172.9%; in data set [2] it was 86.33%.

As to `O=C(Cn1ccnc1[N+](=O)[O-])NCCO` [ETANIDAZOLE], the values for the residual activity in data set [1] and in data set [2] were 72.81% and 76.09%, respectively.

With `CCN(CC)CCOC(=O)c1ccc(N)cc1.Cl` [PROCAINE HYDROCHLORIDE], the residual activity is 104.1% in data set [1] and 104.2% in data set [2].

Take `NC(CO)(CO)CO.O=C(c1ccccc1)c1ccc2n1CCC2C(=O)O` (stereo not drawn) [KETOROLAC TROMETHAMINE]: the residual activity came out at 196.1% in data set [1] and 87.08% in data set [2].

On to `CC(=O)O[C@H]1CC[C@@]2(C)C(=CC(=O)[C@H]3[C@@H]4CC[C@H]([C@H](C)CCCC(C)C)[C@@]4(C)CC[C@@H]32)C1` [7-OXOCHOLESTERYL ACETATE], for which the residual activity in data set [1] came to 97.51%; in data set [2], 99.45%.

In the case of `COc1ccc([C@@H]2Sc3ccccc3N(CCN(C)C)C(=O)[C@@H]2OC(C)=O)cc1.Cl` [DILTIAZEM HYDROCHLORIDE], the residual activity in data set [1] is given as 26.71%; in data set [2], 80.81%.

On to `CCN(CC)C(C)CN1c2ccccc2Sc2ccccc21.Cl` (stereo not drawn) [ETHOPROPAZINE HYDROCHLORIDE], for which the results for the residual activity in data set [1] and in data set [2] were 60.6% and 85.68%, respectively.

Turning to `CC(=O)OCC(=O)[C@@]1(O)CC[C@H]2[C@@H]3CCC4=CC(=O)CC[C@]4(C)[C@@]3(F)[C@@H](O)C[C@@]21C` [FLUDROCORTISONE ACETATE], the residual activity in data set [1] is 36.29%; in data set [2], 71.2%.

Consider `COP(=O)(OC)OC(Br)C(Cl)(Cl)Br` (stereo not drawn) [NALED], for which the values for the residual activity in data set [1] and in data set [2] were 82.68% and 110%, respectively.

For `C/C=C(/C)C(=O)O[C@@H]1Cc2c(ccc3ccc(=O)oc23)OC1(C)C` [JATAMANSIN], the residual activity in data set [1] is 165.1%; in data set [2], 153%.

Take `CCOP(=S)(OCC)Oc1ccc2c(C)c(Cl)c(=O)oc2c1` [COUMAPHOS]: the residual activity in data set [1] came to 99.64%; in data set [2], 124.8%.

Take `COC(=O)[C@H](Cc1ccccc1)NC(=O)[C@@H](N)CC(=O)O`: the residual activity in data set [1] is recorded as 85.37%; in data set [2], 115%.

Regarding `C[C@@H]1[C@H]2[C@H](O[C@@H]3O[C@H](CO)[C@@H](O)[C@H](O)[C@H]3O)OC=C(C(=O)O)[C@H]2C[C@@H]1O` [LOGANIC ACID], the residual activity in data set [1] is recorded as 49.18%; in data set [2], 99.49%.

In the case of `CC1=C2C(=CO[C@H](C)[C@H]2C)C(O)=C(C(=O)O)C1=O` [CITRININ], the residual activity is recorded as 34.39% in data set [1] and 67.29% in data set [2].

Turning to `CC(C)NCC(O)c1cc(O)cc(O)c1` (stereo not drawn) [METAPROTERENOL], the values for the residual activity in data set [1] and in data set [2] were 108.3% and 111.7%, respectively.

In the case of `COc1cc(O)c2c(=O)c(O)c(-c3ccc(O)c(O)c3)oc2c1` [RHAMNETIN], the residual activity amounted to 90.81% in data set [1] and 99.02% in data set [2].

For `CN1CCN(CCCN2c3ccccc3Sc3ccc(C(F)(F)F)cc32)CC1.Cl`, the results for the residual activity in data set [1] and in data set [2] were 146.4% and 70.51%, respectively.

Take `NC(=O)c1cc[n+](CC2=C(C(=O)[O-])N3C(=O)[C@@H](NC(=O)[C@@H](c4ccccc4)S(=O)(=O)[O-])[C@H]3SC2)cc1.[Na+]` [CEFSULODIN SODIUM]: the residual activity in data set [1] was 91.84%; in data set [2], 101.2%.

`Cn1nnnc1SCC1=C(C(=O)[O-])N2C(=O)[C@@H](NC(=O)[C@H](OC=O)c3ccccc3)[C@H]2SC1.[Na+]` [CEFAMANDOLE NAFATE]: the residual activity in data set [1] worked out at 63%; in data set [2], 64.97%.

As for `C[C@]12CC[C@@H]3c4ccc(OCc5ccccc5)cc4CC[C@H]3[C@@H]1C[C@@H](O)[C@@H]2O`, the figures for the residual activity in data set [1] and in data set [2] were 100% and 102.7%, respectively.

Take `COC(=O)[C@@H]1OC(=O)[C@H]2O[C@]23[C@@]2(C)[C@H](CC[C@@]13C)[C@@]1(C)CCC(=O)C(C)(C)[C@@H]1C[C@H]2OC(C)=O`: the residual activity in data set [1] amounted to 49.67%; in data set [2], 99.12%.

Turning to `Cn1c(=O)[nH]c2nc[nH]c2c1=O` [1-METHYLXANTHINE], the values for the residual activity in data set [1] and in data set [2] were 102.1% and 96.5%, respectively.

On to `Cc1ncc([N+](=O)[O-])n1CC(C)O` (stereo not drawn) [SECNIDAZOLE], for which the figures for the residual activity in data set [1] and in data set [2] were 132.9% and 92.29%, respectively.

On to `COc1ccc2[nH]cc(CCN)c2c1` [5-METHOXYTRYPTAMINE], for which the values for the residual activity in data set [1] and in data set [2] were 59.83% and 73.24%, respectively.

Consider `COc1cccc2c1cc([N+](=O)[O-])c1c(C(=O)O)cc3c(c12)OCO3` [ARISTOLOCHIC ACID], for which the residual activity worked out at 76.91% in data set [1] and 107.6% in data set [2].

In the case of `CC(=O)O[C@]1(C(C)=O)CC[C@H]2[C@@H]3C=C(Cl)C4=CC(=O)CC[C@]4(C)[C@H]3CC[C@@]21C` [CHLORMADINONE ACETATE], the residual activity was 9.748% in data set [1] and 24.36% in data set [2].

With `CN(C)/N=N/c1[nH]cnc1C(N)=O` [DACARBAZINE], the values for the residual activity in data set [1] and in data set [2] were 97.65% and 90.13%, respectively.

With `CC(C)CCC[C@@H](C)[C@H]1CC[C@H]2[C@@H]3CC[C@H]4CCCC[C@]4(C)[C@H]3CC[C@]12C`, the residual activity in data set [1] is listed as 88.28%; in data set [2], 103.3%.

With `O=C1CN(/N=C/c2ccc([N+](=O)[O-])o2)C(=O)N1` [NITROFURANTOIN], the residual activity in data set [1] is reported as 97.62%; in data set [2] it was 100.8%.

Take `O=C(O)c1ccccc1C(=O)Nc1ccc(S(=O)(=O)Nc2nccs2)cc1` [PHTHALYLSULFATHIAZOLE]: the results for the residual activity in data set [1] and in data set [2] were 115.5% and 107%, respectively.

For `COc1ccccc1/C=C/C(=O)O` [COUMARINIC ACID METHYL ETHER], the residual activity in data set [1] was determined as 110.4%; in data set [2], 119.3%.

In the case of `CCCCC(=O)O[C@]1(C(=O)CO)[C@@H](C)C[C@H]2[C@@H]3CCC4=CC(=O)C=C[C@]4(C)[C@@]3(F)[C@@H](O)C[C@@]21C` [BETAMETHASONE VALERATE], the residual activity was 38.6% in data set [1] and 10.24% in data set [2].

`CC(=O)O[C@H]1CC[C@]2(C)C(C[C@H](OC(C)=O)[C@]3(C)C4=CC(=O)OC(c5ccoc5)[C@@]4(C)CCC23)C1(C)C` (stereo partly drawn) [3beta,7beta-DIACETOXYDEOXODEACETOXYDEOXYDIHYDROGEDUNIN]: the residual activity in data set [1] is on record as 51.92%; in data set [2], 67.84%.
